In paper PMC9030166, “Natural Phaeosphaeride A Derivatives Overcome Drug Resistance of Tumor Cells and Modulate Signaling Pathways” (Pharmaceuticals, 2022):

Columns and labels:
A549 = assay: MTT cytotoxicity, A549 non-small cell lung cancer cells; type: cell-based, human; settings: 48 h; for IC50: Homo sapiens, A549, adhesive tumor culture
Excerpt: (§1) Cell cultures used in the work: adhesive cultures HBL-100 cells (cells of a normal mammary gland epithelium, immortalized by the SV40 virus and acquired tumorigenicity); MCF-7 breast cancer cells; PC-3 prostate adenocarcinoma cells; HCT-116 colorectal cancer cells; non-small cell lung cancer cells A549; human embryonic kidney cells HEK293; suspension cultures (NCI-H929 and RPMI8226 multiple myeloma cells), K562 chronic myeloid leukemia cells; THP-1 acute monocytic leukemia cells; and Jurkat acute T-cell leukemia cells. We also used several primary cultures of soft tissue sarcomas at 3–4passeges, kindly provided by T.I. Fetisov (The Ethics Committee of N.N. Blokhin NMRCO, protocol code 18-28-09095 and date of approval 28 September 2018).
(§2) Modifications of cell lines: K562/i-S9 is a clone obtained after transfection of K562 cells with the ABCB1 (MDR1) gene-encoding P-glycoprotein [36]. Cells HBL-100/Dox and K562/i-S9_Dox are cells obtained by long-term selection with increasing concentrations of doxorubicin (Sigma-Aldrich, St. Louis, MO, USA) from HBL-100 and K562/i-S9 cells, respectively. MCF-7, A594 cells, and primary cultures of soft tissue sarcomas were cultured in DMEM medium (PanEko, Russia), PC-3 and HCT-116 cells and all suspension cultures in RPMI1640 medium (PanEko, Russia) supplemented with 10% fetal bovine serum (GE Healthcare LifeSciences, USA), and gentamicin at a concentration of 40 μg/mL at 37 °C and 5% CO2.
(§3) Cells MCF-7, PC-3, A549, and HCT-116, and primary cultures of STSwere seeded in 96-well plates, 6 × 10^3 cells per well in 90 μL of culture medium. Suspension cultures were seeded at a concentration of 25 × 10^3 cells per well in 135 μL of medium. The test substances were dissolved in DMSO (Applichem, Council Bluffs, IA, USA) until a concentration of 1 × 10^−^2 M was obtained; for the subsequent dilution of the substances, a serum-free culture medium was used. The next day, for adhesive cultures, and on the same day, for suspension cultures, substances were added to the plates in a volume of 10 μL (adhesive cultures) and 15 μL (suspension cultures) per well at various concentrations; each concentration was added in 3–4 repetitions. The cells were cultured in the presence of substances for 48 h. Then, MTT reagent (PanEko, Moscow, Russia) was added to the wells at a concentration of 5 mg/mL in a volume of 20 μL per well. After 1.5–2 h, the medium with the reagent was removed, and the precipitate of the crystals of formazan was dissolved in 60 μL of DMSO. The optical density was determined using a Multiskan FC spectrophotometer (Thermo Scientific, Waltham, MA, USA) at a wavelength of 540 nm.
(§4) Based on the results of the experiments, a schedule was plotted of the dependence of the percentage of surviving cells (from control) on the concentration of the compound, and the sought concentration IC50 was calculated. The experiments were carried out in 3–4 times.

[1] = test system: CMT № 3 (Epithelial Sarcoma (Metastasis)); assay: MTT cytotoxicity, primary culture of soft tissue sarcoma CMT № 3; type: cell-based; settings: Homo sapiens, 48 h
Excerpt: (§5) It is believed that such cultures have a molecular profile that corresponds more with cells from the human body, in comparison with that of stable cultures of tumor cells (Table 3).
as §1, §2
as §3, with “Then, MTT reagent (PanEko, Moscow, Russia) was added to the wells at a concentration of 5 mg/mL in a volume of 20 μL per well. After 1.5–2 h, the medium with the reagent was removed, and the precipitate of the crystals of formazan was dissolved in 60 μL of DMSO.” left out
(§6) Based on the results of the experiments, a schedule was plotted of the dependence of the percentage of surviving cells (from control) on the concentration of the compound, and the sought concentration IC50 was calculated. […]

p38 (pThr180/pTyr182) = assay: MILLIPLEX MAP 9-Plex, p38 active form in A431 lysates; type: cell-based, human; settings: 10 μM; for p38 (pThr180/pTyr182) fluorescence intensity: A431 cell lysates, M ± mx, control 567.7 ± 266.6; for p38 (pThr180/pTyr182) fluorescence intensity / increase of fluorescence intensity of the active form p38: 1 h; for activation of signaling pathway p38 (pThr180/pTyr182), in words / increase of fluorescence intensity of the active form p38: A431 cells; for increase of fluorescence intensity of the active form p38: versus control
Excerpt: (§7) We used the MILLIPLEX MAP Multi-Pathway Magnetic Bead 9-Plex-Cell Signaling Multiplex Assay, which allows the simultaneous detection of nine phosphorylated proteins that are markers of the main intracellular signaling pathways (phosphorylation site is indicated in parentheses), a universal transcription factor that controls the expression of immune response genes; apoptosis and cell cycle NFκB (pS536); cAMP-dependent transcription factor (CREB (pS133); mitogen-activated kinase p38 (pT180/pY182); stress-activated protein kinase JNK (pT183/pY185); ribosomal […]; transcription factors STAT3 (pS727) and STAT5A/B (pY694/699); protein kinase B (Akt) (pS473); and kinase regulated by extracellular signals ERK1/2 (pT185/pY187).
(§8) The effect of various concentrations of PPA derivatives on the cell culture was studied using xCelligence RTCA equipment (AceaBioscience, San Diego, CA, USA). The concentration closest to the IC50 (10 μM) was chosen as the experimental concentration. The selected concentration of phaeosphaeride A derivatives allows for the assessment of the early effect of compounds on cells and compares their effectiveness. In this experiment, the signaling pathways Akt (pSer473), p70S6K (pThr412), NFkB (p65-pSer536), and CREB (pSer133) were not activated (Table 8). The stress-activated signaling pathways ERK/MAP kinase 1/2 (pThr185/pTyr187), JNK (pThr183/pTyr185), and p38 (pThr180/pTyr182) were activated for these compounds.
(§9) We used a MILLIPLEX MAP Multi-Pathway Magnetic Bead 9-Plex-Cell Signaling Multiplex Assay kit (Merck/Millipore), according to the manufacturer’s protocol. A431 cells were cultured in DMEM with 10% FBS in 24-well plates. Compounds were added to the subconfluent cells at a concentration of 10 μM in DMEM medium for 1 h. Each compound was added in 5 experimental repeats. Cell lysates were prepared with lysis buffer (Millipore) with protease inhibitors (Complete, Roche); the protein concentration in the lysates was determined by the Lowry method. In samples equalized in protein concentration, the active forms of kinase cascades were determined using a Bio-Plex 200 fluorescent analyzer (Bio-Rad).

JNK (pThr183/pTyr185) = assay: MILLIPLEX MAP 9-Plex, JNK active form in A431 lysates; type: cell-based, human; settings: 10 μM; for JNK (pThr183/pTyr185) fluorescence intensity: A431 cell lysates, 1 h, M ± mx, control 50.9 ± 10.5; for activation of signaling pathway JNK (pThr183/pTyr185), in words: A431 cells
Excerpt: as §7, §8, §9

HBL-100 = assay: MTT cytotoxicity, sensitive HBL-100 cells; type: cell-based; settings: Homo sapiens, 48 h
Excerpt: as §1, §3, §4

[2] = test system: CMT № 2 (Malignant Schwannoma); assay: MTT cytotoxicity, primary culture of soft tissue sarcoma CMT № 2; type: cell-based; settings: Homo sapiens, 48 h
Excerpt: as §5, §1, §2
as §3, with “Then, MTT reagent (PanEko, Moscow, Russia) was added to the wells at a concentration of 5 mg/mL in a volume of 20 μL per well. After 1.5–2 h, the medium with the reagent was removed, and the precipitate of the crystals of formazan was dissolved in 60 μL of DMSO.” left out
as §6

THP-1 = assay: MTT cytotoxicity, THP-1 acute monocytic leukemia cells; type: cell-based; settings: Homo sapiens, suspension culture, 48 h
Excerpt: as §1, §2, §3, §4

CREB (pSer133) = assay: MILLIPLEX MAP 9-Plex, CREB active form in A431 lysates; type: cell-based, human; settings: A431 cell lysates, 10 μM, 1 h, M ± mx; control 154.5 ± 34.2
Excerpt: as §7, §8, §9

HCT-116 = assay: MTT cytotoxicity, HCT-116 colorectal cancer cells; type: cell-based, human; settings: 48 h; for IC50: Homo sapiens, HCT-116, adhesive tumor culture
Excerpt: as §1, §2, §3, §4

Compound | IC50 (A549) | IC50 [1] | p38 (pThr180/pTyr182) fluorescence intensity (p38 (pThr180/pTyr182)) | activation of signaling pathway p38 (pThr180/pTyr182), in words (p38 (pThr180/pTyr182)) | increase of fluorescence intensity of the active form p38 (p38 (pThr180/pTyr182)) | JNK (pThr183/pTyr185) fluorescence intensity (JNK (pThr183/pTyr185)) | activation of signaling pathway JNK (pThr183/pTyr185), in words (JNK (pThr183/pTyr185)) | IC50 (HBL-100) | IC50 [2] | IC50 (THP-1) | CREB (pSer133) fluorescence intensity (CREB (pSer133)) | IC50 (HCT-116) | IC50 value, A549 (A549; adhesive tumor culture) | IC50 value, HCT-116 (HCT-116; adhesive tumor culture)
C=C1C2=C(C(=O)N1OC)[C@@H](N(C)C)[C@@](C)(O)[C@H](CCCCC)O2 [Compound 2, (2S,3R,4R)-4-(dimethylamino)-3-hydroxy-6-methoxy-3-methyl-7-methylene-2-pentyl-3,4,6,7-tetrahydropyrano[2,3-c]pyrrol-5(2H)-one] | 9.6 ± 2.1 µM | 7.8 ± 0.6 µM | 2795.4 ± 572.0 *↑ rel. units | maximum degree of activation | 1.5–3 times | 559.2 ± 31.5 *↑ rel. units | maximum degree of activation | 4.9 ± 1 µM | 1.9 ± 0.5 µM | 0.9 ± 0.3 µM | 610.0 ± 113.0 *↑ rel. units | 4.2 ± 0.2 µM | – | –
C=C1C2=C(C(=O)N1OC)[C@@H](N(CC)CCO)[C@@](C)(O)[C@H](CCCCC)O2 [Compound 9, (2S,3R,4R)-4-[ethyl(2-hydroxyethyl)amino]-3-hydroxy-6-methoxy-3-methyl-7-methylene-2-pentyl-3,4,6,7-tetrahydropyrano[2,3-c]pyrrol-5(2H)-one] | 8.9 ± 0.2 µM | 13 ± 0.9 µM | 657.1 ± 287.5 rel. units | – | 1.5–3 times | 117.9 ± 15.1 *↑ rel. units | – | 6.5 ± 0.8 µM | 4.1 ± 1.1 µM | 1.7 ± 0.2 µM | 339.8 ± 53.3 *↑ rel. units | 3.9 ± 0.1 µM | – | –
C=C1C2=C(C(=O)N1OC)[C@@H](N1CCCC1)[C@@](C)(O)[C@H](CCCCC)O2 [Compound 1] | 14 ± 0.1 µM | 4.8 ± 0.9 µM | 2349.9 ± 755.5 rel. units | – | 1.5–3 times | 239.9 ± 23.9 *↑ rel. units | – | 6.2 ± 0.8 µM | 2.5 ± 0.9 µM | 1.5 ± 0.4 µM | 329.9 ± 48.4 *↑ rel. units | 7.6 ± 0.9 µM | – | –
CCCCC[C@@H]1OC2=C(C(=O)N(OC)/C2=C\n2cnnc2)C(n2cnnc2)[C@@]1(C)O (stereo partly drawn) [Compound 10] | – | – | 1783.6 ± 181.9 *↑ rel. units | only slightly activated | – | 157.2 ± 15.4 *↑ rel. units | only slightly activated | – | – | 42 ± 5.2 µM | 584.8 ± 105.5 *↑ rel. units | – | not active | not active
C=C1C2=C(C(=O)N1OC)[C@@H](N(CCCC)CCCC)[C@@](C)(O)[C@H](CCCCC)O2 [Compound 5, (2S,3R,4R)-4-(dibutylamino)-3-hydroxy-6-methoxy-3-methyl-7-methylene-2-pentyl-3,4,6,7-tetrahydropyrano[2,3-c]pyrrol-5(2H)-one] | 23.4 ± 2.3 µM | – | 1245.9 ± 342.8 rel. units | only slightly activated | – | 83.1 ± 8.3 *↑ rel. units | only slightly activated | – | – | 8.2 ± 0.6 µM | 202.1 ± 26.3 rel. units | 12 ± 0.9 µM | – | –
